Data on 13 compounds can be found in patent publication US6187802A, “Substituted 4-arylmethylene-2-imino-2,3-dihydrothiazoles and derivatives and their pharmaceutical use” (Knoll Aktiengesellschaft, priority 1997, dated 2001).

Assay [1] deals with T1, dopamine (DA) reuptake sites (Rattus norvegicus, UniProt P23977).
T1 construct: Striatal tissue from the brains of male Charles River rats weighing 150-250 g; from tissue; host or cells: rat brain striatum (crude synaptosomes in A1, washed membranes in A4)
The assay is described as follows: displacement of [3H]GBR 12935 from dopamine reuptake sites, striatal membranes. Format: binding. Conditions: 10^-6 M test compound, [3H]GBR 12935 1 nM, one test only; for inhibition at 1 µM: read-out: DA uptake (% displacement of specific binding of tritiated ligand). On the procedure: Striatal tissue from the brains of male Charles River rats weighing 150-250 g was homogenised in ice-cold 0.32M sucrose (1:80 w/v) using a motor driven teflon pestle (12 strokes, 800 rpm) and centrifuged at 1000 g for 12 minutes. The supernatant was stored on ice and the pellet was resuspended in 0.32M sucrose (1:80 w/v) and centrifuged at 850 g for 10 minutes. Combined supernatants were diluted to 1:320 w/v with ice-cold 50 mM Tris-HCl, pH 7.4 (at 25° C.) containing 200 mM sodium chloride and 5 mM potassium chloride (Tris buffer) and centrifuged at 40,000 g for 10 minutes. The resulting pellet was resuspended in 10 ml of 50 mM Tris buffer, incubated at 37° C. for 10 min, diluted in 50 mM Tris buffer (1:320 w/v) and recentrifuged at 40,000 g for 10 minutes. The final pellet was resuspended in 50 mM Tris buffer (equivalent to 1.25 mg wet weight of tissue/ml) and used immediately in the binding assay. All centrifugations were carried out at 4° C.
Membranes (800 μl; equivalent to 1 mg wet weight of tissue/tube) were incubated with 100 μl [^3 H]GBR 12935 at a single concentration of 1 nM and 100 μl of distilled water (total binding) or 100 μl of test compound (10^-6 M) or 100 μl of mazindol (1 μM; non-specific binding) for 90 min at 4° C.
Membrane bound radioactivity was recovered by filtration under vacuum through Whatman GF/C filters, pre-soaked for 1 h in 0.5% polyethylenimine,using a Brandel cell harvester. Filters were rapidly washed with 16 ml of ice-cold 50 mM Tris-HCl, pH 7.4 and radioactivity determined by liquid scintillation counting (2 ml Packard MV Gold scintillator).
(§1) For each of these tests measuring the ability of compounds of Formula I to displace standard ligands from dopamine (DA), 5-hydroxytryptamine (5-HT) and noradrenaline (NA) reuptake sites in vitro, the percentage displacement of specific binding of tritiated ligand by 10^-6 M test compound was calculated in the following way:
(§2) Firstly, specific binding of tritiated ligand in the absence (A) and presence (B) of test compound was determined:
(§3) In the absence of compound:
(§4) A (dpm)=Total binding (dpm)-Non-specific binding (dpm)
(§5) In the presence of compound (10^-6 M):
(§6) B (dpm)=Binding at 10^-6 M (dpm)-Non-specific binding (dpm)
(§7) The specific binding of tritiated ligand in the presence (B) of compound was then converted to a percentage of specific binding of tritiated ligand in the absence (A) of compound:
(§8) % Specific binding at 10^-6 M=B (dpm)/A(dpm)×100
(§9) The percentage displacement of specific binding of trtiated ligand by the test compound (10^-6 M) was then obtained by subtraction of the percentage specific binding in the presence of compound from the percentage specific binding in the absence of compound, which is taken as the maximum binding and so equals 100%:
(§10) % Displacement at 10^-6 M=100-% Specific binding at 10^-6 M.
(§11) The values given below in Table 2 for examples 6 to 76 are % displacement of specific binding of tritiated ligand by 10^-6 M test compound and represent results from one test only. IA refers to <50% displacement.
In general terms: Displacement assays read how much labelled ligand stays bound in the presence of the test substance.

Assay [2] deals with T2, 5-hydroxytryptamine (5-HT) reuptake sites (Rattus norvegicus, UniProt P31652).
T2 construct: Frontal cortical tissue from the brains of male Sprague-Dawley rats; from tissue; host or cells: rat brain frontal cortex (crude synaptosomes in A2, washed membranes in A5)
The assay is described as follows: displacement of [3H]paroxetine from 5-HT reuptake sites, frontal cortical membranes. In kind it is binding. Conditions: 10^-6 M test compound, [3H]paroxetine 30 pM, one test only; for inhibition at 1 µM: read-out: 5-HT uptake (% displacement of specific binding of tritiated ligand). On the procedure: Frontal cortical tissue from the brains of male Charles River rats weighing 150-250 g was homogenised in ice-cold 0.25M sucrose (1:30 w/v) using a Kinematic polytron (speed setting 6 for 30 seconds) and centrifuged at 1000 g for 12 minutes. The supernatant was stored on ice and the pellet was resuspended in 0.25M sucrose (1:20 w/v) and centrifuged at 850 g for 10 minutes. Combined supernatants were diluted to 1:100 w/v with ice-cold 50 mM Tris-HCl, pH 7.5 (at 25° C.) containing 120 mM sodium chloride and 5 mM potassium chloride (Tris buffer) and centrifuged at 40,000 g for 10 minutes. The resulting pellet was resuspended in 50 mM Tris buffer (1:100 w/v) and recentrifuged at 40,000 g for 10 minutes. The final pellet was resuspended in 50 mM Tris buffer (equivalent to 2 mg wet weight of tissue/ml) and used immediately in the binding assay. All centrifugations were carried out at 4° C.
Membranes (1000 μl; equivalent to 2 mg wet weight of tissue/tube) were incubated with 200 μl [^3 H]paroxetine at a single concentration of 30 pM and 200 μl of distilled water (total binding) or 200 μl of test compound (10^-6 M) or 200 μl of citalopram (1 μM; non-specific binding) for 2 h at 22° C.
Membrane bound radioactivity was recovered by filtration under vacuum through Whatman GFIC filters using a Brandel cell harvester. Filters were rapidly washed with 16 ml ice-cold 50 mM Tris buffer and radioactivity determined by liquid scintillation counting (2 ml Packard MV Gold scintillator).
as §1, §2, §3, §4, §5, §6, §7, §8, §9, §10, §11

Assay [3] deals with T3, noradrenaline (NA) reuptake sites (Rattus norvegicus, UniProt Q63380).
T3 construct: Frontal cortical tissue from the brains of male Sprague-Dawley rats; from tissue; host or cells: rat brain frontal cortex (crude synaptosomes in A3, washed membranes in A6)
The assay is described as follows: displacement of [3H]nisoxetine from noradrenaline reuptake sites, frontal cortical membranes. As to conditions: 10^-6 M test compound, [3H]nisoxetine 0.6 nM, one test only, read-out: NA uptake (% displacement of specific binding of tritiated ligand). Here is the method:
Frontal cortical tissue from the brains of male Charles River rats weighing 150-250 g was homogenised in ice-cold 50 mM Tris-HCl, pH 7.4 (at 25° C.) containing 120 mM sodium chloride and 5 mM potassium chloride (Tris buffer; 1:60 w/v) using a Kinematic polytron (speed setting 6 for 30 seconds) and centrifuged at 40,000 g for 10 minutes. The supernatant was discarded and the pellet rehomogenised in Tris buffer, 1:60 w/v, and centrifuged at 40,000 g for 10 minutes. This step was repeated twice more so that, in total, the brain tissue was homogenised and centrifuged four times. The final pellet was resuspended in 50 mM Tris-HCl, pH 7.4 containing 300 mM sodium chloride and 5 mM potassium chloride (equivalent to 25 mg wet weight of tissue/ml) and used immediately in the binding assay. All centrifugations were performed at 4° C.
Membranes (400 μl; equivalent to 10 mg wet weight of tissue/tube) were incubated with 50 μl [^3 H]nisoxetine at a single concentration of 0.6 nM and 50 μl of distilled water (total binding) or 50 μl of test compound (10^-6 M) or 50 μl of mazindol (1 μM; non-specific binding) for 4 h at 4° C.
Membrane bound radioactivity was recovered by filtration under vacuum through Skatron 11734 filters using a Skatron cell harvester. Filters were rapidly washed with ice-cold 50 mM Tris-HCl, pH 7.4 containing 120 mM sodium chloride and 5 mM potassium chloride (wash setting 9,9,0) and radioactivity determined by liquid scintillation counting (1 ml Packard MV Gold scintillator).
as §1, §2, §3, §4, §5, §6, §7, §8, §9, §10, §11

Counter-ions that a name gives are not always drawn.

T2 sequence (P31652 whole entry): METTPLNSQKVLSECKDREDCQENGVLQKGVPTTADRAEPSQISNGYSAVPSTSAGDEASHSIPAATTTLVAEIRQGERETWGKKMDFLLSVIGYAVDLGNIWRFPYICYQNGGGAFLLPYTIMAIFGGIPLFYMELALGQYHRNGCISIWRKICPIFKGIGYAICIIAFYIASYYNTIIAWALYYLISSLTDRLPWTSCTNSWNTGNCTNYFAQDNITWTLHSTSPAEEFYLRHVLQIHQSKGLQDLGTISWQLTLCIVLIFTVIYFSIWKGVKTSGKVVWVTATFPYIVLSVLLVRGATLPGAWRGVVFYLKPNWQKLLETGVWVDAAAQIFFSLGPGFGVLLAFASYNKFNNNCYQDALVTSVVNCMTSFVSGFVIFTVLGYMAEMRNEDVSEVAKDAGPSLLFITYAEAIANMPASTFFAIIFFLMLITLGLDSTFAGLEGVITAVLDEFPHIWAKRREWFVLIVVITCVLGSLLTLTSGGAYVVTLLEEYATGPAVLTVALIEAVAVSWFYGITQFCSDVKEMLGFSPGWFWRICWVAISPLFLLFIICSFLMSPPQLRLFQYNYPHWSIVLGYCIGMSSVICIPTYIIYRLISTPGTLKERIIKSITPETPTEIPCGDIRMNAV
T1 sequence (P23977 whole entry): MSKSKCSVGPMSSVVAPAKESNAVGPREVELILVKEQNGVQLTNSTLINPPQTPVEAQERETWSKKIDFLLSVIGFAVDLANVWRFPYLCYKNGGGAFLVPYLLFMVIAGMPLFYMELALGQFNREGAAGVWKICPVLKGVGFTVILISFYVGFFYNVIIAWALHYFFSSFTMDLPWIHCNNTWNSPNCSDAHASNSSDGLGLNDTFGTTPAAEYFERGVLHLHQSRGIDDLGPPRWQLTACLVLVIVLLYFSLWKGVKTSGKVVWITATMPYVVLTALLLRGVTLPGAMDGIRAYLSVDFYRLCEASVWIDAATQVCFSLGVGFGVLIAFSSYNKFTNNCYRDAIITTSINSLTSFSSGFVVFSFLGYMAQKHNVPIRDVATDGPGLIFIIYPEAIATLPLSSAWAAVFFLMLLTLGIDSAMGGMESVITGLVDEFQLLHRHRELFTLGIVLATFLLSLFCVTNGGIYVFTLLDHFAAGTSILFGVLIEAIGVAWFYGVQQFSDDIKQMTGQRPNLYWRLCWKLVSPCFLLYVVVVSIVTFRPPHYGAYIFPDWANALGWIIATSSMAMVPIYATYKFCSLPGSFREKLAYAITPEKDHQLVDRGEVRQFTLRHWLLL
T3 sequence (Q63380 1-617): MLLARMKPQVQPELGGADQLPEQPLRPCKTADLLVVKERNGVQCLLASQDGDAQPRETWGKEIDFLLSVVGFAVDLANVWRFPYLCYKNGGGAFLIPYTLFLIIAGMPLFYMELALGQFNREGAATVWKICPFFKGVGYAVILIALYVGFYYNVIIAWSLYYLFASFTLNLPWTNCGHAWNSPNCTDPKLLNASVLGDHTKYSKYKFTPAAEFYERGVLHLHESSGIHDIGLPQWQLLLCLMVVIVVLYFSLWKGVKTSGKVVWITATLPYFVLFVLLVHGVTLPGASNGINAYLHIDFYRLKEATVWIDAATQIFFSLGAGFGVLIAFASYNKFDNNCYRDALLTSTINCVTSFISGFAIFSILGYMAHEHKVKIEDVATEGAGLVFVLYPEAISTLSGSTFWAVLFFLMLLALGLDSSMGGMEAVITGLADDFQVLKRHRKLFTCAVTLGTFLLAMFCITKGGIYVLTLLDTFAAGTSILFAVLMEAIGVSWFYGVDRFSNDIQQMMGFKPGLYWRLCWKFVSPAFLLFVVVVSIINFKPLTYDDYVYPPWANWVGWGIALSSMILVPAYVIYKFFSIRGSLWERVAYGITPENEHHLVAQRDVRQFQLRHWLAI

Regarding `CC(C)N=c1scc(C2(c3ccc4ccccc4c3)CCC2)n1C(C)C` [Example 39, 3-Isopropyl-2-isopropylimino-4-[1-(2-naphthyl)cyclobutyl]-2,3-dihydrothiazole hydrobromide], the inhibition at 1 µM in assay [1] stood at 108%; in assay [2], 100%; in assay [3], 58%.
For `Clc1ccc(C2=C(C3(c4ccc(Cl)c(Cl)c4)CCC3)N3CCN=C3S2)cc1` [Example 10, 2-(4-chlorophenyl)-3-[1-(3,4-dichlorophenyl)cyclobutyl]-5,6-dihydroimidazo[2,1-b]thiazole hydrobromide], in that order: 85%, 57% and < 50%.
The matching figures for `c1cncc(CN=c2scc(C3(c4ccc5ccccc5c4)CCC3)n2Cc2cccnc2)c1` [Example 47, 4-[1-(2-Naphthyl)cyclobutyl]-3-(3-pyridylmethyl)-2-(3-pyridylmethylimino)-2,3-dihydrothiazole hydrobromide]: 109%, 99% and 92%.
For `Fc1ccc(CN=c2scc(C3(c4ccc(Cl)c(Cl)c4)CCC3)n2Cc2ccc(F)cc2)cc1` [Example 23, 4-[1-(3,4-Dichlorophenyl)cyclobutyl]-3-(4-fluorobenzyl)-2-(4-fluorobenzylimino)-2,3-dihydrothiazole hydrobromide], in that order: 83%, < 50% and < 50%.
As to `Fc1ccc(CN=c2scc(C3(c4ccc5ccccc5c4)CCC3)n2Cc2ccc(F)cc2)cc1` [Example 45, 3-(4-Fluorobenzyl)-2-(4-fluorobenzylimino)-4-[1-(2-naphthyl)cyclobutyl]-2,3-dihydrothiazole hydrobromide], the inhibition at 1 µM in assay [1] is 96%; in assay [2], 59%; in assay [3], < 50%.
For `CN=c1scc(C2(c3ccc(Cl)c(Cl)c3)CCC2)n1C` [Example 14, 4-[1-(3,4-Dichlorophenyl)cyclobutyl]-3-methyl-2-methylimino-2,3 dihydrothiazole hydrobromide], in that order: 103%, 96% and 80%.
The matching figures for `COc1ccc(CCN=c2scc(C3(c4ccc(Cl)c(Cl)c4)CCC3)n2CCc2ccc(OC)c(OC)c2)cc1OC` [Example 33, 4-[1-(3,4-Dichlorophenyi)cyclobutyl]-3-(3,4-dimethoxyphenethyl)-2-(3,4-dimethoxyphenethylimino)-2,3-dihydnothiazole hydrobromide]: 99%, 63% and < 50%.
The matching figures for `COc1ccc(CCN=c2scc(C(C)(C)c3ccc(Cl)c(Cl)c3)n2CCc2ccc(OC)c(OC)c2)cc1OC` [Example 69, 4-[l-(3,4-Dichlorophenyl)-1-methylethyl]-3-(3,4-dimethoxyphenethyl)-2-(3,4-dimethoxyphenethylimino)-2,3-dihydrothiazole hydrobromide]: 58%, < 50% and < 50%.
`Clc1ccc(C2(c3csc(=NCc4cccnc4)n3Cc3cccnc3)CCC2)cc1Cl` [Example 25, 4-[1-(3,4-Dichlorophenyl)cyclobutyl]-3-(3-pyridylmethyl)-2-(3-pyridylmethylimino)-2,3-dihydrothiazole hydrobromide]: the inhibition at 1 µM in assay [1] was 108%; in assay [2] it was 95%; in assay [3], 66%.
The matching figures for `CCCCN=c1scc(C(C)(C)c2ccc(Cl)c(Cl)c2)n1CCCC` [Example 63, 3-Butyl-2-butylimino-4-[1-(3,4-dichlorophenyl)-1-methylethyl]-2,3-dihydrothiazole hydrobromide]: 107%, 52% and < 50%.
For `Fc1cccc(C2(C3=CSC4=NCCN34)CCC2)c1` [Example 75, 3-[1-(3-Fluorophenyl)cyclobutyl]-5,6-dihydroimidazo[2,1-b]thiazole hydrobromide], in that order: < 50%, 53% and < 50%.
The matching figures for `CCCCN=c1scc(C2(c3ccc(Cl)cc3)CCC2)n1CCCC` [Example 56, 3-Butyl-2-butylimino-4-[1-(4-chlorophenyl)cyclobutyl]-2,3-dihydrothiazole hydrobromide]: 93%, < 50% and < 50%.
On to `Br.CC(C)(C1=CSC2=NCCN12)c1ccc(Cl)c(Cl)c1` [Example 74, 3-[1-(3,4-Dichlorophenyl)-1-methylethyl]-5,6-dihydroimidazo[2,1-b]thiazole hydrobromide], for which the “DA uptake (% displacement of specific binding of tritiated ligand)” value in assay [1] (hydrobromide, 1 µM) is on record as 97%. The “5-HT uptake (% displacement of specific binding of tritiated ligand)” value in assay [2] (1 µM, hydrobromide) worked out at 52%.
